Earlier results as cited in patent US20160220684A1, “COMPOSITION AND METHOD FOR RELIEVING PAIN AND INFLAMMATION, TREATMENT OF ERECTILE DYSFUNCTION, AND TREATMENT OF ACNE” (priority 2014, published 2016).

System: intractable pain
Conditions: patients with metastatic cancer refractory to opioids; article published May 28, 2015

Structure (SMILES): O=C(c1ccccc1)c1ccc2n1CCC2C(=O)O (racemic) [keterolac, (±)-5-benzoyl-2,3-dihydro-1H-pyrrolizine-1-carboxylic acid, compounded with 2-amino-2-(hydroxymethyl)-1,3-propanediol]
- analgesic effectiveness in intractable pain: only effective non-opiod analgesic
